“And” between values parts separate entries of the source, which are not always exact repeats. Equal entries are not always repeated.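 Interpolation was linear, between the two tested concentrations surrounding the appropriate level; five concentrations were tested over 48 hours in 96-well plates. Abbreviation: GI50, concentration required for 50% inhibition of growth.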 The source made the active and inactive calls. No stated cut-off is given here; in the data, active = GI50 up to about 1.1 µM and inactive = higher. Some results are limits rather than exact numbers.

The text below walks through data of ChEMBL document CHEMBL1201862, “PubChem BioAssay data set” (2004).

Test systems include MCF7; HT-29; Malme-3M; HCC 2998; HCT-15; OVCAR-3; SF-539; EKVX; HL-60; OVCAR-8; IGROV-1; MDA-MB-435; SK-MEL-5; RXF 393; SF-295; PC-3; MOLT-4; SF-268; UACC-257.
Test in all cases: growth of human tumour cells (NCI), 48 h

Regarding `O=C(O)C1(CC(CCCN2CCCCC2)c2ccccc2)CCCC1` (centres undefined), the GI50 in the test with MCF7 was > 100 µM (inactive); with HT-29, > 100 µM (inactive); in the test on Malme-3M, > 100 µM (inactive); in the test on HCC 2998, > 100 µM (inactive); with HCT-15, above 100 µM; with OVCAR-3, 41.8 µM (inactive). Also, the GI50 in the test on SF-539, in the test on EKVX, with HL-60, in the test with OVCAR-8, in the test with IGROV-1 and in the test on MDA-MB-435 was > 100 µM (inactive) throughout. The GI50 in the test on SK-MEL-5, in the test on RXF 393, in the test with SF-295, in the test on PC-3, in the test with MOLT-4 and in the test with SF-268 was > 100 µM (inactive) each time.
`CC1(C)N=c2c(ncn2-c2ccccc2)=C(C(N)=O)N1`: the GI50 in the test on MCF7 was > 100 µM (inactive); in the test on HT-29 it was > 100 µM (inactive); in the test with Malme-3M, > 100 µM (inactive); in the test with HCC 2998, > 100 µM (inactive); in the test on HCT-15, above 100 µM; with OVCAR-3 it was > 100 µM (inactive). Moreover, the GI50 with SF-539, in the test on EKVX, in the test on UACC-257, in the test on HL-60, in the test on OVCAR-8 and with IGROV-1 was > 100 µM (inactive) each time. The GI50 with MDA-MB-435, with SK-MEL-5, in the test with RXF 393, in the test on SF-295, with PC-3 and in the test with SF-268 was > 100 µM (inactive) each time.
Consider `O=C1c2ccccc2C(=O)c2sc(Nc3cc(Cl)ccc3Cl)nc21`, for which the GI50 with MCF7 is 1.7 µM (inactive); in the test with HT-29, 14.1 µM (inactive); in the test on Malme-3M, 1.44 µM (inactive); with HCC 2998, 5.86 µM (inactive); with HCT-15 it was 2.94 µM; with OVCAR-3, 0.74 µM (active). Further, the GI50 in the test with SF-539 was 3.16 µM (inactive); with EKVX, 12.9 µM (inactive); with UACC-257, 2.51 µM (inactive); in the test with HL-60, 0.736 µM (active); in the test on OVCAR-8, 3.77 µM (inactive); in the test on IGROV-1, 4.15 µM (inactive). Further, the GI50 is 2.01 µM (inactive) in the test on MDA-MB-435; 1.53 µM (inactive) in the test with SK-MEL-5; 14.3 µM (inactive) in the test with RXF 393; 4.03 µM (inactive) in the test with SF-295; 3.21 µM (inactive) in the test with PC-3; 2.52 µM (inactive) with MOLT-4. For the same compound, the GI50 with SF-268 is 4.09 µM (inactive).
Turning to `CC1OC(OC2C(OC(=O)[C@]34CCC(C)(C)C[C@H]3C3=CC[C@@H]5[C@@]6(C)CC[C@H](OC7OC(C(=O)O)C(O)C(O)C7O)C(C)(C)[C@@H]6CC[C@@]5(C)[C@]3(C)CC4)OCC(O)C2O)C(O)C(O)C1OC1OCC(O)C(O)C1O` (some centres undefined), the GI50 is 50.1 µM (inactive) and 41.5 µM (inactive) with MCF7; 15.4 µM (inactive) and 28.2 µM (inactive) in the test with HT-29; 34.7 µM (inactive) and 28.3 µM (inactive) in the test on Malme-3M; 18.7 µM (inactive) and 19.2 µM (inactive) in the test with HCC 2998; above 100 µM with HCT-15; > 100 µM (inactive) in the test on OVCAR-3. For the same compound, the GI50 with EKVX was 22.3 µM (inactive) and 30.1 µM (inactive); with UACC-257, 45 µM (inactive) and 29.8 µM (inactive); in the test on HL-60, 21.8 µM (inactive); with OVCAR-8 it was > 100 µM (inactive); in the test with IGROV-1 it was > 100 µM (inactive); with MDA-MB-435, 18.3 µM (inactive) and 18.9 µM (inactive). The GI50 was > 100 µM (inactive) and 70.1 µM (inactive) in the test with RXF 393; > 100 µM (inactive) and 53.2 µM (inactive) in the test with SF-268.
